This data set in a line: Rat plasma levels, per os pharmacokinetics in rats (conversion of prodrug to active COX-2 inhibitor). The data set is classed as in vivo, Male Sprague Dawley rats. The settings on record: maximum plasma concentration of the corresponding lactone (active COX-2 inhibitor) observed in rats dosed at 20 mg/kg orally with the indicated prodrug. An excerpt:
The animals are housed, fed and cared for according to the Guidelines of the Canadian Council on Animal Care.
Male Sprague Dawley rats (325-375 g) are fasted overnight prior to each PO blood level study.
The rats are placed in the restrainer one at a time and the box is firmly secured. The zero blood sample is obtained by nicking a small (1 mm or less) piece off the tip of the tail. The tail is then stroked with a firm but gentle motion from the top to the bottom to milk out the blood. Approximately 1 mL of blood is collected into a heparinized vacutainer tube.
Compounds are prepared as required, in a standard dosing volume of 10mL/kg, and administered orally by passing a 16 gauge, 3" gavaging needle into the stomach.
Subsequent bleeds are taken in the same manner as the zero bleed except that there is no need to nick the tail again. The tail is cleaned with a piece of gauze and milked/stroked as described above into the appropriately labelled tubes.
Immediately after sampling, blood is centrifuged, separated, put into clearly marked vials and stored in a freezer until analysed. […]
For analysis, aliquots are diluted with an equal volume of acetonitrile and centrifuged to remove protein precipitate. […] Quantitation is done relative to a clean blood sample spiked with a known quantity of drug. […]

As for `COC(=O)/C(=C(\C)c1ccc(S(C)(=O)=O)cc1)c1ccccc1` [Example 1, (E)-3-(4-Methylsulfonyl)phenyl-2-phenylbut-2-enoic acid methyl ester], the “Plasma Levels” value was determined as 1000 nM.

Source of the values: patent EP0882015B1, “DIPHENYL STILBENES AS PRODRUGS TO COX-2 INHIBITORS” (Merck Frosst Canada & Co., priority 1996, dated 1997).
